# Like-named read-outs stand apart in the source and are kept apart here.
# Tests used:
# human plasma proteins = experiment: Protein binding to human plasma proteins using equilibrium dialysis; format: in vitro ADME; conditions: pH 7.4, equilibrium dialysis 6 h, 37° C.
# Experimental: III. Determination of Protein Binding to Human Plasma Proteins Using Equilibrium Dialysis
# 96 Well Plate (High Throughput Dialysis): Stock solutions of compounds were spiked into human plasma at a target concentration of 2000 ng/mL. The mixture was inverted gently several times to insure homogeneity and triplicate 50 μL aliquots were collected to verify initial concentrations. Following assembly of dialysis plate (HTDialysis membrane strips, molecular weight cut off limit of 12,000-14,000 daltons), spiked plasma (150 μL) was placed in the donor compartment of the well and Phosphate Buffered Saline pH 7.4 (150 μL) in the receiver compartment. Eight wells were set up per compound and plasma type. Plate was placed in a 37° C. incubator on a plate shaker. Following the 6 h incubation period, the plate was removed. Single 50 μL aliquots from each donor and receiver compartment (per well) were analyzed. Sample analysis was by LC/MS/MS (results reported as Drug Peak Area/Internal Standard Peak Area ratios). Protein binding assay can also be performed using dialysis cells instead of HT Dialysis 96 well plates. In Table 1, % Protein Binding, +=>98%; ++=95-98%: +++=<95%.
# RKO = experiment: Methylene blue growth inhibition assay, RKO; format: cell-based; conditions: Homo sapiens, 72 h
# Experimental: (§1) II. Methylene Blue Growth Inhibition Assay—Inhibition of Cell Proliferation by PLK1 Inhibitors
# (§2) Generally, exponentially growing cell lines of different tumor origins, cultured in appropriate media containing 10% fetal bovine serum at 37° C. in a 5% CO2 incubator were plated at low density (less than 2000 cells/well) in 96-well plates. […]. Seventy two hours post-treatment, cell numbers were determined using 100 μl per well of methylene blue (Sigma M9140) (0.5% in 50:50 Ethanol:water). Stain was incubated at room temperature for 30 minutes before plates were rinsed and dye solubilized in 1% N-lauroyl sarcosine, sodium salt, (Sigma L5125, in PBS) (further details of a methylene blue assay are described below). Plates were read on a microplate reader, measuring the OD at 620 nm.
# (§3) . The data are shown in Table 1 below and represent a compilation of several different experiments, each performed using the general parameters outlined above, although minor variations may have been employed in some instances.
# (§4) In one assay, normal human foreskin fibroblasts (HFF), human colon (HCT116, RKO), lung (H460, A549) and breast (MCF7) tumor cell lines were cultured in high glucose DMEM (Life Technologies) containing 10% fetal bovine serum (FBS) at 37° C. in a humidified 5% CO2, 95% air incubator. Cells were harvested using trypsin/EDTA, counted using a haemocytometer, and plated in 100 μL of culture media per well, at the following densities, in a 96-well tissue culture plate (Falcon 3075): HFF 5,000 cells/well, HCT116 3,000 cells/well, RKO 2,500 cells/well, H460 2,500 cells/well, A549 5,000 cells/well, MCF7 4,000 cells/well. The next day, compounds were diluted in low glucose DMEM containing 100 μg/mL gentamicin, at twice the final required concentration, from 10 mM stock solutions in DMSO. 100 μL/well of these dilutions were added to the 100 μL of media currently in the assay plates. Medium containing 0.6% DMSO was added to control wells. The final concentration of DMSO in all wells was 0.3%. Cells were incubated at 37° C., 5% CO2 for 72 h. Medium was removed by aspiration. Cell biomass was estimated by staining cells with 80 μL per well methylene blue (Sigma M9140, 0.5% in 50:50 ethanol:water), and incubation at room temperature for 30-60 min. Stain was removed by aspiration and the plates rinsed by immersion in water, then air-dried. To release stain from the cells, 100 μL of solubilization solution was added (1% N-lauroyl sarcosine, Sodium salt, Sigma L5125, in PBS), and plates were shaken gently for about 30 min. Optical density at 620 nm was measured on a microplate reader. Percent inhibition of cell growth was calculated relative to vehicle treated control wells. […].
# [1] = tested on: normal human foreskin fibroblasts (HFF); experiment: Methylene blue growth inhibition assay, HFF; format: cell-based; conditions: Fibroblast, 72 h
# Experimental: as §1, §2, §3, §4
# H460 = experiment: Methylene blue growth inhibition assay, H460; format: cell-based; conditions: Homo sapiens
# Experimental: as §1, §2, §3, §4
# PLK1 kinase domain = molecular target: T1, PLK1 kinase domain (Homo sapiens, UniProt P53350); experiment: Assay for inhibition of PLK1 (SPA, 33P-ATP, biotinylated peptide substrate); format: biochemical; conditions: 1 μM ATP, 2 nM PLK1 kinase domain; read-out: PLK1 pIC50 (converted)
# T1 construct: made in house; host or cells: baculovirus infected T. ni cells
# Experimental: I. Assay for Inhibition of PLK1
# All procedures were performed at 4° C. Cells were lysed in 50 mM HEPES, 200 mM NaCl, 50 mM imidazole, 5% glycerol; pH 7.5. The homogenate was centrifuged at 14K rpm in a SLA-1500 rotor for 1 h and the supernatant filtered through a 1.2 micron filter. The supernatant was loaded onto a Nickel chelating Sepharose (Amersham Pharmacia) column and washed with lysis buffer. Protein was eluted using 20%, 30% and 100% buffer B steps where buffer B is 50 mM HEPES, 200 mM NaCl, 300 mM imidazole, 5% glycerol; pH 7.5. Fractions containing PLK were determined by SDS-PAGE. Fractions containing PLK were diluted five-fold with 50 mM HEPES, 1 mM DTT, 5% glycerol; pH 7.5, then loaded on an SP Sepharose (Amersham Pharmacia) column. After washing the column with 50 mM HEPES, 1 mM DTT, 5% glycerol; pH 7.5, PLK was step eluted with 50 mM HEPES, 1 mM DTT, 500 mM NaCl; 5% glycerol; pH 7.5. PLK was concentrated using a 10 kDa molecular weight cutoff membrane and then loaded onto a Superdex 200 gel filtration (Amersham Pharmacia) column equilibrated in 25 mM HEPES, 1 mM DTT, 500 mM NaCl, 5% glycerol; pH 7.5. Fractions containing PLK were determined by SDS-PAGE. PLK was pooled, aliquoted and stored at −80° C. Samples were quality controlled using mass spectrometry, N-terminal sequencing and amino acid analysis.
# B. Enzyme activity +/− inhibitors was determined as follows: All measurements were obtained under conditions where signal production increased linearly with time and enzyme. Test compounds were added to white 384-well assay plates (0.1 μL for 10 μL and some 20 μL assays, 1 μL for some 20 μL assays) at variable known concentrations in 100% DMSO. DMSO (1-5% final, as appropriate) and EDTA (65 mM in reaction) were used as controls.
# Reaction Mix (10 or 20 μL) was quickly added to each well immediately following addition of enzyme via automated liquid handlers and incubated 1-1.5 h at 22° C. The 20 μL enzymatic reactions were stopped with 50 μL of stop mix (50 mM EDTA, 4.0 mg/ml Streptavidin SPA beads in Standard Dulbecco's PBS (without Mg^2+ and Ca^2+), 50 μM ATP) per well. The 10 μL reactions were stopped with 10 μL of stop mix (50 mM EDTA, 3.0 mg/mL Streptavidin-coupled SPA Imaging Beads (“LeadSeeker”) in Standard Dulbecco's PBS (without Mg^2+ and Ca^2+), 50 μM ATP) per well. Plates were sealed with clear plastic seals, spun at 500×g for 1 min or settled overnight, and counted in Packard TopCount for 30 seconds/well (regular SPA) or imaged using a Viewlux imager (LeadSeeker SPA). Signal above background (EDTA controls) was converted to percent inhibition relative to that obtained in control (DMSO-only) wells.
# MCF7 = experiment: Methylene blue growth inhibition assay, MCF7; format: cell-based; conditions: Homo sapiens
# Experimental: as §1, §2, §3, §4
# A549 = experiment: Methylene blue growth inhibition assay, A549; format: cell-based; conditions: Homo sapiens
# Experimental: as §1, §2, §3, §4
# [2] = High throughput solubility assay; format: physicochemical; conditions: aqueous buffer, pH 7.4, 0.05M phosphate buffer
# Experimental: IV. High Throughput Solubility Assay
# Two samples are prepared for each compound. One (the standard sample) contains the compound at a fixed concentration of 20 μM in an aqueous/organic mixed solvent cocktail. The other (the test sample) contains the compound at a maximum concentration of 200 μM in pH 7.4, 0.05M phosphate buffer and shaking for 24 h. The test sample is filtered by 0.45μ filter and then spun for 10 min to remove any undissolved solid. HPLC analyses are preformed on these samples. The peak areas are used for computing solubility.
# HCT116 = experiment: Methylene blue growth inhibition assay, HCT116; format: cell-based; conditions: Homo sapiens
# Experimental: as §1, §2, §3, §4
# [3] = methylene blue, read-out: RKO IC50
# [4] = methylene blue, HFF normal fibroblasts, read-out: HFF IC50
# [5] = NCI-H460, methylene blue, 72 h, H460, read-out: H460 IC50
# [6] = methylene blue, 72 h, MCF7, read-out: MCF7 IC50
# [7] = methylene blue, 72 h, A549, read-out: A549 IC50
# [8] = HCT-116, methylene blue, 72 h, HCT116, read-out: HCT116 IC50
# T1 sequence (P53350 21-346): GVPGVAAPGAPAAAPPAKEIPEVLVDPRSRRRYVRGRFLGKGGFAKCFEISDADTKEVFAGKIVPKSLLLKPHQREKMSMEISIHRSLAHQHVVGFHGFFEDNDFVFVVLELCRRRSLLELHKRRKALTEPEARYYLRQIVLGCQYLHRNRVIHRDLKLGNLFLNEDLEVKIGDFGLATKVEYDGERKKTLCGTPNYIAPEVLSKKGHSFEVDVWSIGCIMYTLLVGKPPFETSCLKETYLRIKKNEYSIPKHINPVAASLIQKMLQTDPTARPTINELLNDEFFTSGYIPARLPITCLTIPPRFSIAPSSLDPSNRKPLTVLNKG
Structure (SMILES),"fraction unbound at 6 h, 2000 ng/mL (human plasma proteins)",IC50 (H460; [5]),IC50 (PLK1 kinase domain),IC50 (MCF7; [6]),IC50 (A549; [7]),solubility at 24 h [2],IC50 (HCT116; [8]),IC50 (RKO; [3]),"IC50 [1, 4]",IC50 (RKO; read-out: RKO IC50 (μM)),IC50 ([1]; read-out: HFF IC50 (μM)),"IC50 (H460; NCI-H460, 72 h, read-out: H460 IC50 (μM))","IC50 (MCF7; MCF7, 72 h, read-out: MCF7 IC50 (μM))","IC50 (A549; A549, 72 h, read-out: A549 IC50 (μM))","IC50 (HCT116; HCT-116, 72 h, read-out: HCT116 IC50 (μM))"
"C[C@@H](Oc1cc(-n2cnc3ccc(CS(C)(=O)=O)cc32)sc1C(N)=O)c1ccccc1C(F)(F)F [Example 1, 5-{6-[(Methylsulfonyl)methyl]-1H-benzimidazol-1-yl}-3-({(1R)-1-[2-(trifluoromethyl)phenyl]ethyl}oxy)-2-thiophenecarboxamide]",0.02 to 0.05,< 0.1 µM,< 10 nM,< 0.1 µM,< 0.1 µM,30 to 100 µM,< 0.1 µM,< 0.1 µM,0.1 to 1 µM,,,,,,
"COc1cc2ncn(-c3cc(OC(C)c4ccccc4Cl)c(C(N)=O)s3)c2cc1OC (stereo not drawn) [Com. Ex 126, reference compound]",< 0.02,,,,,,,,,< 0.1 µM,0.1 to 1 µM,< 0.1 µM,> 1 µM,< 0.1 µM,< 0.1 µM
"COc1cc2ncn(-c3cc(OCc4ccccc4C(F)(F)F)c(C(N)=O)s3)c2cc1OCCN1CCN(C)CC1 [Com. Ex 136, reference compound]",> 0.05,0.1 to 1 µM,10 to 1000 nM,0.1 to 1 µM,,,0.1 to 1 µM,0.1 to 1 µM,> 1 µM,,,,,,
"C[C@@H](Oc1cc(-n2cnc3ccc(CS(C)(=O)=O)cc32)sc1C(N)=O)c1ccccc1Cl [Example 2, 3-{[(1R)-1-(2-Chlorophenyl)ethyl]oxy}-5-{6-[(methylsulfonyl)methyl]-1H-benzimidazol-1-yl}-2-thiophenecarboxamide]",0.02 to 0.05,< 0.1 µM,< 10 nM,< 0.1 µM,< 0.1 µM,30 to 100 µM,< 0.1 µM,< 0.1 µM,0.1 to 1 µM,,,,,,
"C[C@@H](Oc1cc(-n2cnc3ccc(CN4CCN(C)CC4)cc32)sc1C(N)=O)c1ccccc1Cl [Example 4, 3-{[(1R)-1-(2-Chlorophenyl)ethyl]oxy}-5-{6-[(4-methylpiperazin-1-yl)methyl]-1H-benzimidazol-1-yl}thiophene-2-carboxamide]",,< 0.1 µM,< 10 nM,< 0.1 µM,< 0.1 µM,> 100 µM,< 0.1 µM,< 0.1 µM,< 0.1 µM,,,,,,
"CS(=O)(=O)c1ccc2ncn(-c3cc(OCc4ccccc4C(F)(F)F)c(C(N)=O)s3)c2c1 [Com. Ex 121, reference compound]",0.02 to 0.05,> 1 µM,10 to 1000 nM,> 1 µM,> 1 µM,,> 1 µM,> 1 µM,> 1 µM,,,,,,

# More lines, main results first:
"fraction unbound at 6 h, 2000 ng/mL (human plasma proteins)",IC50 (H460; [5]),IC50 (PLK1 kinase domain),IC50 (MCF7; [6]),IC50 (A549; [7]),solubility at 24 h [2],IC50 (HCT116; [8]),Structure (SMILES),IC50 (RKO; [3]),"IC50 [1, 4]",IC50 (RKO; read-out: RKO IC50 (μM)),IC50 ([1]; read-out: HFF IC50 (μM)),"IC50 (H460; NCI-H460, 72 h, read-out: H460 IC50 (μM))","IC50 (MCF7; MCF7, 72 h, read-out: MCF7 IC50 (μM))","IC50 (A549; A549, 72 h, read-out: A549 IC50 (μM))","IC50 (HCT116; HCT-116, 72 h, read-out: HCT116 IC50 (μM))"
> 0.05,,,,,> 100 µM,,"C[C@@H](Oc1cc(-n2cnc3ccc(OC4CCN(C)CC4)cc32)sc1C(N)=O)c1ccccc1C(F)(F)F [Example 7, 5-{6-[(1-Methyl-4-piperidinyl)oxy]-1H-benzimidazol-1-yl}-3-({(1R)-1-[2-(trifluoromethyl)phenyl]ethyl}oxy)-2-thiophenecarboxamide]",,,,,,,,
> 0.05,,,,,> 100 µM,,"C[C@@H](Oc1cc(-n2cnc3ccc(OC4CCN(C)CC4)cc32)sc1C(N)=O)c1ccccc1Cl [Example 8, 3-{[(1R)-1-(2-Chlorophenyl)ethyl]oxy}-5-{6-[(1-methyl-4-piperidinyl)oxy]-1H-benzimidazol-1-yl}-2-thiophenecarboxamide]",,,,,,,,
> 0.05,< 0.1 µM,< 10 nM,,< 0.1 µM,> 100 µM,< 0.1 µM,"C[C@@H](Oc1cc(-n2cnc3ccc(OC4CCNCC4)cc32)sc1C(N)=O)c1ccccc1Cl [Example 6, 3-{[(1R)-1-(2-Chlorophenyl)ethyl]oxy}-5-[6-(4-piperidinyloxy)-1H-benzimidazol-1-yl]-2-thiophenecarboxamide]",< 0.1 µM,0.1 to 1 µM,,,,,,
